Data set [1] is described as follows: DVS isotherm of spray-dried formulation and crystalline compound I-1. The class given is physicochemical. As to conditions: 25° C.; compared with the dispersion. Here is the method: FIG. 1 is a dynamic vapor sorption (DVS) plot of percent change in mass versus target relative humidity (RH), illustrating the change in mass of one embodiment of the disclosed spray-dried formulation at 25° C. under various relative humidity conditions. The plot provides two isotherms: 1 is the sorption plot, illustrating the change in mass with increasing relative humidity steps; and 2 is the desorption plot, illustrating the change in mass with decreasing relative humidity steps.
FIG. 6 is a DVS plot of percent change in mass versus target relative humidity, illustrating the change in mass of one embodiment of a crystalline sample of compound I-1 at 25° C. under various relative humidity conditions. The plot provides two isotherms: 1 is the sorption plot, illustrating the change in mass with increasing relative humidity steps; and 2 is the desorption plot, illustrating the change in mass with decreasing relative humidity steps.
FIGS. 1-10 provide structural and stability data concerning the spray-dried formulation (FIGS. 1-5) and a crystalline sample of compound I-1 (FIGS. 6-10). FIGS. 1 and 6 provide DVS isotherm plots for the spray-dried formulation and crystalline compound, respectively.

Data set [2] in a line: Rat AUC and percent bioavailability of compound I-1 after administration of potential prodrugs. Also on record: species or system Rats. Particulars: in vivo, parent, iv 1 mg/kg, read-out: Rat AUClast of compound I-1.
The nature of data set [3]: Pharmacokinetics in cynomolgus monkeys (co-crystal and spray-dried dispersion capsules). The class given is in vivo. Particulars: male cynomolgus monkeys (n=3/group), capsule equivalent to 25 mg compound I-1. Here is the method: Two groups of male cynomolgus monkeys (n=3/group) were administered test articles in a 3-way crossover design as indicated in Table 2. The washout period between doses was 3-4 days. Test article capsules were prepared such that each capsule contained an equivalent of 25 mg of free base compound I-1. The organic stock solution of compound I-1 was prepared at a concentration of 5 mg/ml using TPGS/PEG400/PG, and was diluted with apple juice within 1 hour of dosing (PO) at 1 part stock solution to 3 parts apple juice.
FIGS. 11-14 provide graphs of the plasma concentrations obtained from administering the co-crystal formulations of compound I-1 to monkeys. And Table 3 provides pharmacokinetic (PK) data for the co-crystal formulations, including the average area under the curve (AUC) and percent bioavailability.
FIG. 19 provides PK data for one embodiment of the disclosed spray-dried formulation, and the organic/juice formulation.

Data set [4] can be described thus: Hygroscopicity evaluation (DVS) of salts of compound I-18. As to conditions: 25° C., listed as Choline salt. It counts as physicochemical. Here is the method:
To investigate the solid form stability as a function of humidity, DVS isotherm plot of the K salt, Arginine salt, Choline salt and Tris salt were collected at 25° C. between 0 and 95% RH.

A short description of data set [5]: Physical and chemical stability of salts of compound I-18. It counts as physicochemical. As to conditions: for Area (%) of peak at RRT 1.00: main peak; for Area (%) of peak at RRT 1.17: peak corresponds to I-1 formed by hydrolysis. Here is the method:
The physical and chemical stability of the K salt, Arginine salt, Choline salt and Tris salt were evaluated under conditions of 25° C./60% RH and 40° C./75% RH for 1 week. Each sample was added into 3 mL glass vials, sealed by parafilm with several holes, and kept under tested condition. After one week, samples was taken for XRPD and HPLC purity test.

[6] abbreviates: 25° C./60% RH, 1 week, listed as choline salt.
Where [7] appears, read: 25° C./60% RH/1 week, listed as Choline salt.
Where [8] appears, read: 40° C./75% RH, 1 week, listed as choline salt.
[9] abbreviates: Initial, listed as choline salt.

The values that follow come from US12357623B2, “Method for treating a disease or condition using a pyrazole compound or formulation thereof” (Rigel Pharmaceuticals, Inc., priority 2021, dated 2025).

Structures can show the parent of a compound that is named as a salt.

In the case of `CCO[C@H]1CC[C@H](n2cc(NC(=O)c3csc(-c4cn[nH]c4)n3)c(-c3nc(F)ccc3F)n2)CC1` [Compound I-1, N-(3-(3,6-difluoropyridin-2-yl)-1-((1r, 4r)-4-ethoxycyclohexyl)-1H-pyrazol-4-yl)-2-(1H-pyrazol-4-yl)thiazole-4-carboxamide], the “change in mass when exposed to higher relative humidity (DVS)” value in data set [1] was “substantially smaller change in mass”. Further, in data set [2], the AUC(0-t) came to 1050 ng·h/mL.

Regarding `CCO[C@H]1CC[C@H](n2cc(NC(=O)c3csc(-c4cn[nH]c4)n3)c(-c3nc(F)ccc3F)n2)CC1.O=P(O)(O)O` [Compound I-104, N-(3-(3,6-difluoropyridin-2-yl)-1-((1r, 4r)-4-ethoxycyclohexyl)-1H-pyrazol-4-yl)-2-(1H-pyrazol-4-yl)thiazole-4-carboxamide phosphate], in data set [3], the “percent bioavailability (% F) of compound I-1” value is recorded as 7.9%.

On to `CCO[C@H]1CC[C@H](n2cc(NC(=O)c3csc(-c4cnn(C(C)OP(=O)(O)O)c4)n3)c(-c3nc(F)ccc3F)n2)CC1` (stereo partly drawn) [Compound I-111, 1-(4-(4-((3-(3,6-difluoropyridin-2-yl)-1-((1r, 4r)-4-ethoxycyclohexyl)-1H-pyrazol-4-yl)carbamoyl)thiazol-2-yl)-1H-pyrazol-1-yl)ethyl dihydrogen phosphate choline salt], for which the “water uptake (DVS)” value in data set [4] (at 70% RH) amounted to 3.66%. Moreover, the “water uptake (DVS)” value in data set [4] (at 95% RH) stood at 32.4%. Besides, in data set [5] (setting [6]), the “Area (%) of peak at RRT 0.77” value worked out at 0.04%, the “Area (%) of peak at RRT 1.35” value came out at 0.10%, the “Area (%) of peak at RRT 1.45” value was determined as 0.07% and the “Area (%) of peak at RRT 1.71” value turned out to be 0.05%. In data set [5] (setting [6]), the “Area (%) of peak at RRT 1.73” value stood at 0.46%, the HPLC purity change entry was “no HPLC purity decrease”, the “Area (%) of peak at RRT 1.00” value came out at 98.66% and the “Area (%) of peak at RRT 1.17” value amounted to 0.58%. In data set [5] (setting [7]), the “Form change (XRPD)” value was “no form change and No”; the Purity/Initial purity came to 100.0%. Moreover, in data set [5] (setting [8]), the “Area (%) of peak at RRT 0.77” value worked out at 0.04%, the “Area (%) of peak at RRT 1.35” value stood at 0.14%, the “Area (%) of peak at RRT 1.45” value came out at 0.11% and the “Area (%) of peak at RRT 1.71” value is recorded as 0.08%. In addition, in data set [5] (setting [8]), the “Area (%) of peak at RRT 1.73” value is 0.46%, the HPLC purity change entry is on record as “a purity decrease was observed”, the “Area (%) of peak at RRT 1.00” value was 97.81% and the “Area (%) of peak at RRT 1.17” value was found to be 1.31%. For the same molecule, in data set [5] (40° C./75% RH/1 week, listed as Choline salt), the “Form change (XRPD)” value is “no form change and No”. For the same molecule, in data set [5] (Initial), the “Area (%) of peak at RRT 1.35” value is reported as <0.03%. Also, in data set [5] (setting [9]), the “Area (%) of peak at RRT 0.77” value was determined as 0.03%, the “Area (%) of peak at RRT 1.13” value worked out at 0.06%, the “Area (%) of peak at RRT 1.45” value stood at 0.06% and the “Area (%) of peak at RRT 1.71” value was determined as 0.06%. For the same molecule, in data set [5] (setting [9]), the “Area (%) of peak at RRT 1.73” value turned out to be 0.33%, the “Area (%) of peak at RRT 1.00” value came to 98.70% and the “Area (%) of peak at RRT 1.17” value amounted to 0.75%. In addition, the Initial purity in data set [5] (initial, before storage, listed as Choline salt) came to 98.70 area %.
